Earlier results, collected in patent US8529907B2, “Methods of treating ophthalmic disorders” (Nikken Sohonsha Corporation, priority 2008, dated 2013).

Columns and labels:
RP patients = conditions: 15,000 U/d

CC1=C(/C=C/C(C)=C/C=C/C(C)=C/C=O)C(C)(C)CCC1 [11-cis-retinal]
rescue of mutant opsin P23H (mutant opsin P23H): effectively rescued

CC1=C(/C=C/C(C)=C\C=C\C(C)=C\C=O)C(C)(C)CCC1 [9-cis-retinal]
duration of supported rod retinal function post-treatment (Rpe65-deficient mice; early intervention): more than 6 months | retinal ester accumulation (Rpe65-deficient mice; early intervention): significantly attenuated | rod photopigment and rod physiology (Rpe65-deficient mice; oral, within 48 h, Rpe65-deficient mice): formation of rod photopigment and dramatic improvement in rod physiology | rescue of mutant opsin P23H (mutant opsin P23H): effectively rescued

CCCCCCCCCCCCCCCC(=O)OC/C=C(C)/C=C/C=C(C)/C=C/C1=C(C)CCCC1(C)C [Vitamin A palmitate]
slowing of the progress of RP (RP patients): about 2 % per year
